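Following 48 hours of exposure in 96-well plates, responses at five concentrations were used to interpolate endpoints linearly. At the TGI there is no net growth.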
Key:
Assay in all cases: inhibition of tumour cell growth, NCI panel, 48 h
CCRF-CEM leukemia = system: CCRF-CEM leukemia
HCT-15 colon = system: HCT-15 colon
COLO 205 colon = system: COLO 205 colon
NCI-H23 lung = system: NCI-H23 lung
A549 NSCLC = system: A549 NSCLC
MALME-3M melanoma = system: MALME-3M melanoma
NCI-H460 lung = system: NCI-H460 lung
SF-295 CNS = system: SF-295 CNS
M14 melanoma = system: M14 melanoma
MDA-MB-231 breast = system: MDA-MB-231 breast
SW-620 colon = system: SW-620 colon
SR leukemia = system: SR leukemia
EKVX NSCLC = system: EKVX NSCLC
LOX IMVI melanoma = system: LOX IMVI melanoma
U251 CNS = system: U251 CNS
SK-OV-3 ovarian = system: SK-OV-3 ovarian
NCI-H226 lung = system: NCI-H226 lung
SN12C renal = system: SN12C renal
TK-10 renal = system: TK-10 renal
OVCAR-8 ovarian = system: OVCAR-8 ovarian
PC-3 prostate = system: PC-3 prostate
HOP-62 NSCLC = system: HOP-62 NSCLC
SNB-19 CNS = system: SNB-19 CNS
RPMI-8226 leukemia = system: RPMI-8226 leukemia
SNB-75 CNS = system: SNB-75 CNS
A498 renal = system: A498 renal
OVCAR-3 ovarian = system: OVCAR-3 ovarian
HOP-92 NSCLC = system: HOP-92 NSCLC
DU-145 prostate = system: DU-145 prostate
SF-268 CNS = system: SF-268 CNS
SK-MEL-28 melanoma = system: SK-MEL-28 melanoma
HS 578T breast = system: HS 578T breast
MDA-MB-435 = system: MDA-MB-435
OVCAR-5 ovarian = system: OVCAR-5 ovarian
MCF7 breast = system: MCF7 breast
CAKI-1 renal = system: CAKI-1 renal
ACHN renal = system: ACHN renal
HCT-116 colon = system: HCT-116 colon
UACC-257 melanoma = system: UACC-257 melanoma
NCI/ADR-RES ovarian = system: NCI/ADR-RES ovarian
SK-MEL-5 melanoma = system: SK-MEL-5 melanoma
786-0 renal = system: 786-0 renal
SF-539 CNS = system: SF-539 CNS
RXF 393 renal = system: RXF 393 renal
HL-60(TB) leukemia = system: HL-60(TB) leukemia
UACC-62 melanoma = system: UACC-62 melanoma
T-47D breast = system: T-47D breast
HCC-2998 colon = system: HCC-2998 colon
MDA-N = system: MDA-N
HT29 colon = system: HT29 colon
MOLT-4 leukemia = system: MOLT-4 leukemia
KM12 colon = system: KM12 colon
K-562 leukemia = system: K-562 leukemia
UO-31 renal = system: UO-31 renal
SK-MEL-2 melanoma = system: SK-MEL-2 melanoma
NCI-H522 lung = system: NCI-H522 lung
IGROV1 ovarian = system: IGROV1 ovarian
OVCAR-4 ovarian = system: OVCAR-4 ovarian
BT-549 breast = system: BT-549 breast

## CCOC(=S)SSSC(=S)OCC
CCRF-CEM leukemia
  TGI: > 100 µM
HCT-15 colon
  TGI: 46.8 µM
COLO 205 colon
  TGI: > 100 µM
NCI-H23 lung
  TGI: > 100 µM
A549 NSCLC
  TGI: > 100 µM
MALME-3M melanoma
  TGI: > 100 µM
NCI-H460 lung
  TGI: > 100 µM
SF-295 CNS
  TGI: > 100 µM
M14 melanoma
  TGI: > 100 µM
MDA-MB-231 breast
  TGI: > 100 µM
SW-620 colon
  TGI: > 100 µM
SR leukemia
  TGI: 42.1 µM
EKVX NSCLC
  TGI: > 100 µM
LOX IMVI melanoma
  TGI: > 100 µM
U251 CNS
  TGI: > 100 µM
SK-OV-3 ovarian
  TGI: > 100 µM
NCI-H226 lung
  TGI: > 100 µM
SN12C renal
  TGI: 70 µM
TK-10 renal
  TGI: > 100 µM
OVCAR-8 ovarian
  TGI: 32.3 µM
PC-3 prostate
  TGI: > 100 µM
HOP-62 NSCLC
  TGI: > 100 µM
SNB-19 CNS
  TGI: > 100 µM
RPMI-8226 leukemia
  TGI: 61.1 µM
SNB-75 CNS
  TGI: > 100 µM
A498 renal
  TGI: > 100 µM
OVCAR-3 ovarian
  TGI: > 100 µM
HOP-92 NSCLC
  TGI: > 100 µM
DU-145 prostate
  TGI: > 100 µM
SF-268 CNS
  TGI: > 100 µM
SK-MEL-28 melanoma
  TGI: > 100 µM
HS 578T breast
  TGI: > 100 µM
MDA-MB-435
  TGI: > 100 µM
OVCAR-5 ovarian
  TGI: 86.6 µM
MCF7 breast
  TGI: > 100 µM
CAKI-1 renal
  TGI: > 100 µM
ACHN renal
  TGI: 41.9 µM
HCT-116 colon
  TGI: 53.7 µM
UACC-257 melanoma
  TGI: > 100 µM
NCI/ADR-RES ovarian
  TGI: > 100 µM
SK-MEL-5 melanoma
  TGI: > 100 µM
786-0 renal
  TGI: 28.5 µM
SF-539 CNS
  TGI: > 100 µM
RXF 393 renal
  TGI: > 100 µM
HL-60(TB) leukemia
  TGI: > 100 µM
UACC-62 melanoma
  TGI: > 100 µM
T-47D breast
  TGI: 60 µM
HCC-2998 colon
  TGI: > 100 µM
MDA-N
  TGI: > 100 µM
HT29 colon
  TGI: > 100 µM
MOLT-4 leukemia
  TGI: 94.7 µM
KM12 colon
  TGI: > 100 µM
K-562 leukemia
  TGI: > 100 µM

## COc1ccc(CC2CCc3nc(N)nc(N)c3C2)cc1OC (centres undefined)
HCT-15 colon
  TGI: 98 µM
COLO 205 colon
  TGI: 36 µM
NCI-H23 lung
  TGI: > 50 µM
UO-31 renal
  TGI: > 100 µM
A549 NSCLC
  TGI: > 53.1 µM
MALME-3M melanoma
  TGI: 23.2 µM
NCI-H460 lung
  TGI: > 48.6 µM
SF-295 CNS
  TGI: > 41.4 µM
M14 melanoma
  TGI: > 39.5 µM
SK-MEL-2 melanoma
  TGI: > 91.6 µM
MDA-MB-231 breast
  TGI: > 75.2 µM
SW-620 colon
  TGI: > 100 µM
SR leukemia
  TGI: > 100 µM
NCI-H522 lung
  TGI: 12.6 µM
EKVX NSCLC
  TGI: > 91.2 µM
LOX IMVI melanoma
  TGI: 21.1 µM
U251 CNS
  TGI: > 100 µM
SK-OV-3 ovarian
  TGI: > 100 µM
NCI-H226 lung
  TGI: 42.4 µM
SN12C renal
  TGI: > 100 µM
TK-10 renal
  TGI: > 100 µM
OVCAR-8 ovarian
  TGI: > 62.5 µM
PC-3 prostate
  TGI: > 100 µM
HOP-62 NSCLC
  TGI: > 100 µM
SNB-19 CNS
  TGI: > 89 µM
RPMI-8226 leukemia
  TGI: > 100 µM
SNB-75 CNS
  TGI: > 100 µM
A498 renal
  TGI: > 100 µM
OVCAR-3 ovarian
  TGI: > 100 µM
HOP-92 NSCLC
  TGI: > 100 µM
IGROV1 ovarian
  TGI: > 64 µM
SF-268 CNS
  TGI: > 29 µM
SK-MEL-28 melanoma
  TGI: > 100 µM
HS 578T breast
  TGI: > 100 µM
MDA-MB-435
  TGI: > 100 µM
OVCAR-5 ovarian
  TGI: > 100 µM
MCF7 breast
  TGI: > 44.4 µM
CAKI-1 renal
  TGI: > 100 µM
ACHN renal
  TGI: > 63.1 µM
HCT-116 colon
  TGI: > 100 µM
UACC-257 melanoma
  TGI: > 54.4 µM
NCI/ADR-RES ovarian
  TGI: 16.3 µM
SK-MEL-5 melanoma
  TGI: 18.5 µM
OVCAR-4 ovarian
  TGI: > 100 µM
SF-539 CNS
  TGI: > 40.5 µM
RXF 393 renal
  TGI: 0.81 µM
HL-60(TB) leukemia
  TGI: > 100 µM
UACC-62 melanoma
  TGI: > 36.9 µM
T-47D breast
  TGI: > 82.6 µM
HCC-2998 colon
  TGI: > 47 µM
MDA-N
  TGI: > 44 µM
HT29 colon
  TGI: > 24.5 µM
MOLT-4 leukemia
  TGI: > 100 µM
KM12 colon
  TGI: > 100 µM
BT-549 breast
  TGI: 51.7 µM
K-562 leukemia
  TGI: > 100 µM

Reference: PubChem BioAssay (NCI)
